The source of these data is PMC5679075 (Nature, 2017).

For this assay, the target named is T1, LepI (Aspergillus flavus, UniProt B8NJH3).
T1 sequence (B8NJH3 1-387): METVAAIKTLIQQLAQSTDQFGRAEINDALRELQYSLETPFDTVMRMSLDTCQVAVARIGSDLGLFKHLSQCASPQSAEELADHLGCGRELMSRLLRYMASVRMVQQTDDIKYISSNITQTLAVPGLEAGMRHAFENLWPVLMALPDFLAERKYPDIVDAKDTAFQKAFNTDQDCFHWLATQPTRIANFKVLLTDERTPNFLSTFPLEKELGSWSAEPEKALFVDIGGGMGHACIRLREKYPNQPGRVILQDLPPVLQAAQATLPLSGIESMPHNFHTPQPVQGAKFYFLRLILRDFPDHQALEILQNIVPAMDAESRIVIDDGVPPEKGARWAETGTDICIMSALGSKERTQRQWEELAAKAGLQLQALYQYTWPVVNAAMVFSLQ
The experiment in a line: HPLC time course, inhibition of retro-Claisen rearrangement. To be noted: read-out: % inhibition at 250 μM. The format is biochemical.

Usually inhibition stands for the relative decrease from the control value, in per cent. Regarding `Nc1ncnc2c1ncn2[C@@H]1O[C@H](CSCC[C@H](N)C(=O)O)[C@@H](O)[C@H]1O` [SAH], the inhibition at 250 µM is above 90%.
